In one experiment the test system is HDAC. The experiment is described as follows: HDAC inhibition on whole HT-29 cells and HT-29 cell lysate. The format is cell-based. As to the method:
Bacterial culture and cell-free supernatant collection Pure cultures of bacteria were grown anaerobically in YCFA broth until they reached their stationary growth phase. Cultures were centrifuged at 5,000×g for 5 minutes and the cell-free supernatant (CFS) was filtered using a 0.2 μM filter (Millipore, UK). 1 mL aliquots of the CFS were stored at −80° C. until use. Sodium butyrate, hexanoic and valeric acid were obtained from Sigma Aldrich (UK) and suspensions were prepared in YCFA broth.
To investigate which metabolites were responsible for the strain-induced HDAC inhibition, different concentrations of hexanoic acid, valeric acid and sodium butyrate were measured for their HDAC inhibition on whole HT-29 cells and on HT-29 cell lysate.

A further experiment has as its system MPTP lesioned mice. The experiment is described as follows: Dopamine, DOPAC and HVA in striatum of MPTP lesioned mice (HPLC). The format is in vivo, mouse. Particulars: 2 x 10^8 bacteria p.o. 18 days, MPTP 4 × 20 mg/kg i.p. day 0, day 4 sampling. How it is done: The aim of this study was to evaluate the effects of MRX0029 anaerobic bacteria using MPTP lesioned mice. 48 male mice were allocated to 4 different treatment groups (groups A, B, E and I, with n=12 animals in each group). The treatment groups are shown in Table 1 below and the project time course is outlined below.
Groups A, B, E and I were treated daily for 18 days via oral gavage with either bacteria (MRx0029-group E), or vehicle (PBS). Oral treatment started 14 days before MPTP lesion. Group I animals received a daily vehicle (PBS) p.o. (per oral) treatment and were injected i.p. (intraperitoneal) with the reference drug 30 min before and 90 min after first MPTP on day 0. The application volume for p.o. and vehicle treatment was 200 μl per mouse. Bacteria strain of group E was from glycerol stocks (gly). For oral treatment, gavages for applications were stored in vial containing 70% Ethanol and were flushed before and after each use with distilled water. Every treatment group had its own gavage and ethanol vial and distilled water vial. The tubes and gavages were not changed between the groups. […]
Concentrations of DA, DOPAC and HVA in the striatal samples were determined by column liquid chromatography with electrochemical detection [110; 111]. […] The chromatograms were recorded and integrated by use of a computerized data acquisition system (DataApex, Prague, Czech Republic). […]

The test system of another experiment is SH-SY5Y cells. The experiment is described as follows: MAP2 and β3-tubulin immunoblotting / confocal microscopy. The format is cell-based, human. Particulars: treated 24 h; actin loading control. As to the method:
Cells were seeded onto 8-well chamber slides (Marienfeld Laboratory Glassware) at 5×10^4 cells/well overnight and were treated with 10% bacterial supernatant for 24 h. For differentiation, cells were treated with 10 nM RA for 5 days before treating with cell-free bacterial supernatant for 24 h. Afterwards, the cells were fixed with 4% paraformaldehyde in PBS for 20 minutes at room temperature (RT). Fixed cells were washed with PBS, and permeabilized with 1% Triton X-100 in PBS for 10 minutes. After washing with PBS, the slides were incubated with blocking buffer (4% BSA/PBS) for 1 h at RT before adding anti-MAP2 antibody or β3-tubulin (sc-74421 and sc-80005 respectively, Santa Cruz Biotechnology Inc) diluted in 1% BSA/PBS for 12 h at 4° C. They were then washed twice with PBS, followed by incubation with Alexa Flour 488 conjugated anti-mouse (Molecular Probes Inc) and Alexa Flour 594 conjugated Phalloidin (ab176757, Abcam) for 1 h at RT. […]
SH-SY5Y cells cultured under the indicated conditions described above, treated with MRx0005 and MRx0029 for 24 h and then lysed in RIPA buffer containing cocktail of protease inhibitors (Roche Diagnostics, UK). […] The blots were then incubated with the appropriate horseradish peroxidase (HRP)-conjugated secondary antibody, and proteins were detected by chemiluminescence detection kit (Pierce Biotechnology, Rockford, Ill.). […]
(In general: In western blotting, separated proteins are transferred to a membrane and probed.)

Results on one substance are retold here after patent US11660319B2, “Compositions comprising bacterial strains” (priority 2017, dated 2023).

Consider Megasphaera massiliensis [MRx0029], for which the “HDAC inhibition, HT29 cell lysate” value in the experiment on HDAC (HT-29 cell lysate) was “strong HDAC inhibition”. The “HDAC inhibition, HT29 whole cell” value in the experiment on HDAC (whole HT-29 cells) is recorded as “strong HDAC inhibition”. Besides, in the experiment with MPTP lesioned mice, the DOPAC in striatum result is listed as “recover production” and the Dopamine in striatum entry is “recover production”. In addition, the “level expression of MAP2 (immunoblot)” value with SH-SY5Y cells is on record as “increase”.
